Source: patent US10787447B2, “Pharmaceutical compounds” (Heptares Therapeutics Limited, priority 2018, dated 2020)

Assays:
Type in all cases: cell-based
[1] = biological target: T1, human muscarinic M2 receptor (Homo sapiens, UniProt P08172); assay: Alphascreen Surefire phospho-ERK1/2 functional assay, M2; conditions: for % Emax cf. ACh, M2: CHO cells stably expressing human M2, Emax relative to ACh; for EC50: pEC50 M2, CHO cells stably expressing human M2, phospho-ERK1/2
T1 sequence (P08172 1-466): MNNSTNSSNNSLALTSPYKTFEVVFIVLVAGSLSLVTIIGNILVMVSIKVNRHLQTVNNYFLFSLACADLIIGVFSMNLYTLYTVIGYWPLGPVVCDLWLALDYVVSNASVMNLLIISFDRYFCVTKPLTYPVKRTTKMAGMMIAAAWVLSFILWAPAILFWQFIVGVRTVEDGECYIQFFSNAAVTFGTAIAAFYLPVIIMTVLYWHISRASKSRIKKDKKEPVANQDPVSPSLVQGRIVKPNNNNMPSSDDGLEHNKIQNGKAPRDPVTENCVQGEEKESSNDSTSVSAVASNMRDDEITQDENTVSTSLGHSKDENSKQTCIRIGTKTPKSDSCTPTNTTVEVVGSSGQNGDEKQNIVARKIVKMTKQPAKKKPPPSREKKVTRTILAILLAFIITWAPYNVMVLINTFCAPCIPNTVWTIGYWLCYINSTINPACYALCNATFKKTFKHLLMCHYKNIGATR
Method in brief: (§1)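 CHO cells stably expressing human M1, M2, M3 or M4 receptor, serum-starved overnight, then stimulated with agonist for 5 min at 37 °C. Cells lysed for 15 min and phospho-ERK1/2 detected in the lysate by AlphaScreen SureFire.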

[2] = biological target: T2, human muscarinic M4 receptor (Homo sapiens, UniProt P08173); assay: Alphascreen Surefire phospho-ERK1/2 functional assay, M4; conditions: for % Emax cf. ACh, M4: CHO cells stably expressing human M4, Emax relative to ACh; for EC50: pEC50 M4, CHO cells stably expressing human M4, phospho-ERK1/2
T2 sequence (P08173 1-479): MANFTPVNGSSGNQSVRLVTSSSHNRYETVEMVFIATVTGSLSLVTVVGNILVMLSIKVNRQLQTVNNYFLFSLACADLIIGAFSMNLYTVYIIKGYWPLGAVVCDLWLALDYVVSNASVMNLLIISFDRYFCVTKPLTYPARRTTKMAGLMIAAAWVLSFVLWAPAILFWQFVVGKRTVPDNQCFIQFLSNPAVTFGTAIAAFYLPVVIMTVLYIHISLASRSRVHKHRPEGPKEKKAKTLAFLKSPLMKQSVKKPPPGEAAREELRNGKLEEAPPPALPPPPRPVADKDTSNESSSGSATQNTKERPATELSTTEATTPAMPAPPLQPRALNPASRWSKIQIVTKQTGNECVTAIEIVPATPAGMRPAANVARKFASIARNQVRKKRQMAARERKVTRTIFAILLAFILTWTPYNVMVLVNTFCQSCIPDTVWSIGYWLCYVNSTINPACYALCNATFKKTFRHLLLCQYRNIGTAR
Method in brief: as §1

[3] = biological target: T3, human muscarinic M3 receptor (Homo sapiens, UniProt P20309); assay: Alphascreen Surefire phospho-ERK1/2 functional assay, M3; conditions: for % Emax cf. ACh, M3: CHO cells stably expressing human M3, Emax relative to ACh; for EC50: pEC50 M3, CHO cells stably expressing human M3, phospho-ERK1/2
T3 construct: expressed in transfected cells
Method in brief: as §1

[4] = biological target: T4, human muscarinic M1 receptor (Homo sapiens, UniProt P11229); assay: Alphascreen Surefire phospho-ERK1/2 functional assay, M1; conditions: for % Emax cf. ACh, M1: CHO cells stably expressing human M1; for EC50: pEC50 M1, CHO cells stably expressing human M1, phospho-ERK1/2
T4 sequence (P11229 1-460): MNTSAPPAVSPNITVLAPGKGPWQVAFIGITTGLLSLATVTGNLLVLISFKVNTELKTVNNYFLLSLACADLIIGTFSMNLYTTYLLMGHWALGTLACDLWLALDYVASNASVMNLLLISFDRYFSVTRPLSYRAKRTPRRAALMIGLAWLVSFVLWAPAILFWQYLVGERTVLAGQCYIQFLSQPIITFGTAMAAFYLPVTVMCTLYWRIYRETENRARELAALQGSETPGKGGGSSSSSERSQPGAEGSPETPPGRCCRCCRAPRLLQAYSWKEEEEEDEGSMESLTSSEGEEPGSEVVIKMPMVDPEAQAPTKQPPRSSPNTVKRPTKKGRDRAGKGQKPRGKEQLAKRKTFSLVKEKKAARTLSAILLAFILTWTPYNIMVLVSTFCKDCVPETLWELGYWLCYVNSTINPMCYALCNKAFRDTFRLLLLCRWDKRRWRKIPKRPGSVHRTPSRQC
Method in brief: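 Stably transfected CHO cells, serum-starved overnight, then exposed to agonist for 5 min at 37 °C. Cells lysed and phospho-ERK1/2 measured by AlphaScreen SureFire.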

T3 sequence (P20309 whole entry): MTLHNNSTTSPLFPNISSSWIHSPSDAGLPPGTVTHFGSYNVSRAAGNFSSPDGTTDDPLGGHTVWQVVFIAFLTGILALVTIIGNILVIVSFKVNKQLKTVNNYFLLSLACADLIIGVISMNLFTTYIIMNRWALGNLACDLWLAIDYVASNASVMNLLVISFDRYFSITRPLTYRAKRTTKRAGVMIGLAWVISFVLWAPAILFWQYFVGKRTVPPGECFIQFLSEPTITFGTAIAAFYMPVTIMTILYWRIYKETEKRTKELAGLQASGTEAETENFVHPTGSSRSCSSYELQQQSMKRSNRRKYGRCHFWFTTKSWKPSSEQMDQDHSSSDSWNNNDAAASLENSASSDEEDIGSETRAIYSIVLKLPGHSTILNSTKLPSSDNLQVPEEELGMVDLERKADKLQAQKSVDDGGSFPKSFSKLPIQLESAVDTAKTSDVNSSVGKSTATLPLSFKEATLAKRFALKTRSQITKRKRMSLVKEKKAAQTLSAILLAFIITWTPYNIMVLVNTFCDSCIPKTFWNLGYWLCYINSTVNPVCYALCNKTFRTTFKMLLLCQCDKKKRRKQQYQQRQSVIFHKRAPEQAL

SMILES	% Emax cf. ACh, M2 ([1]; listed as 6-3 Isomer 2)	EC50 [1]	% Emax cf. ACh, M4 ([2]; listed as 6-3 Isomer 2)	EC50 [2]	% Emax cf. ACh, M3 ([3]; listed as 6-3 Isomer 2)	% Emax cf. ACh, M1 ([4]; Emax relative to ACh, listed as 6-3 Isomer 2)	EC50 [4]	% Emax cf. ACh, M2 ([1]; listed as 6-5 Isomer 1)	% Emax cf. ACh, M4 ([2]; listed as 6-5 Isomer 1)	% Emax cf. ACh, M3 ([3]; listed as 6-5 Isomer 1)	EC50 [3]	Emax ([4]; CHO, read-out: % Emax cf. ACh, M1, CHO cells stably expressing human M1, Emax relative to ACh)	% Emax cf. ACh, M2 [1]	% Emax cf. ACh, M4 ([2]; listed as 5-1 Isomer 2)	% Emax cf. ACh, M3 ([3]; listed as 5-1 Isomer 2)	% Emax cf. ACh, M1 ([4]; Emax relative to ACh)	% Emax cf. ACh, M2 ([1]; listed as 1-3 Isomer 2)	% Emax cf. ACh, M4 [2]	% Emax cf. ACh, M3 ([3]; listed as 1-3 Isomer 2)	% Emax cf. ACh, M1 ([4]; Emax relative to ACh, listed as 1-3 Isomer 2)
CCOC(=O)N1C2COCC1CC(N1CCC(N(CC3(C)CC3)C(C)=O)CC1)C2 (single isomer, unassigned) [Example 6-3 Isomer 2]	11%	> 20000 nM	44%	389 nM	9%	90%	195 nM													
CCOC(=O)N1C2COCC1CC(N1CCC(N(Cc3ccccc3)C(C)=O)CC1)C2 (single isomer, unassigned) [Example 6-5 Isomer 1, Ethyl 7-{4-[acetyl(benzyl)amino]piperidin-1-yl}-3-oxa-9-azabicyclo[3.3.1]nonane-9-carboxylate]		> 20000 nM		302 nM			166 nM	11%	50%	13%	> 20000 nM	92%								
CCOC(=O)N1C2COCC1CC(N1CCC3(CC1)CC3)C2 (single isomer, unassigned) [Example 5-1 Isomer 2, Ethyl 7-(6-azaspiro[2.5]oct-6-yl)-3-oxa-9-azabicyclo[3.3.1]nonane-9-carboxylate]				33.9 nM			141 nM						13%	41%	8%	66%				
CCOC(=O)N1C2COCC1CC(N1CCC(n3cc(C)cn3)CC1)C2 (single isomer, unassigned) [Example 1-3 Isomer 2, Ethyl 7-[4-(4-methyl-1H-pyrazol-1-yl)piperidin-1-yl]-3-oxa-9-azabicyclo[3.3.1]nonane-9-carboxylate]		> 20000 nM		112 nM			316 nM				> 20000 nM						11%	81%	5%	45%
